Where a name gives a salt, the structure may show the parent alone.
What follows are molecules tested against T1, SMO (Mus musculus, UniProt P56726) (assay: Smoothened (SMO)/Sonic Hedgehog (SHh) Transient Transcriptional Activation Assay (Gli-luciferase reporter in C3H10T1/2 cells)). Conditions: 2 μM test compound, SHh 250 ng/ml, 20 hrs.
T1 construct: endogenous in cells; host or cells: C3H10T1/2 (ATCC #CCL-226)
Type: cell-based, murine
Method in brief: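 C3H10T1/2 cells transiently transfected with a 10× murine Gli-responsive firefly luciferase reporter plus pEGFP, serum-starved 20 h in 0.5% calf serum, then treated with compounds (2 uM–2 nM final) and 250 ng/ml recombinant human SHh for 20 h at 37 °C. Read-out: Dual-Glo luminescence.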

T1 sequence (P56726 33-793): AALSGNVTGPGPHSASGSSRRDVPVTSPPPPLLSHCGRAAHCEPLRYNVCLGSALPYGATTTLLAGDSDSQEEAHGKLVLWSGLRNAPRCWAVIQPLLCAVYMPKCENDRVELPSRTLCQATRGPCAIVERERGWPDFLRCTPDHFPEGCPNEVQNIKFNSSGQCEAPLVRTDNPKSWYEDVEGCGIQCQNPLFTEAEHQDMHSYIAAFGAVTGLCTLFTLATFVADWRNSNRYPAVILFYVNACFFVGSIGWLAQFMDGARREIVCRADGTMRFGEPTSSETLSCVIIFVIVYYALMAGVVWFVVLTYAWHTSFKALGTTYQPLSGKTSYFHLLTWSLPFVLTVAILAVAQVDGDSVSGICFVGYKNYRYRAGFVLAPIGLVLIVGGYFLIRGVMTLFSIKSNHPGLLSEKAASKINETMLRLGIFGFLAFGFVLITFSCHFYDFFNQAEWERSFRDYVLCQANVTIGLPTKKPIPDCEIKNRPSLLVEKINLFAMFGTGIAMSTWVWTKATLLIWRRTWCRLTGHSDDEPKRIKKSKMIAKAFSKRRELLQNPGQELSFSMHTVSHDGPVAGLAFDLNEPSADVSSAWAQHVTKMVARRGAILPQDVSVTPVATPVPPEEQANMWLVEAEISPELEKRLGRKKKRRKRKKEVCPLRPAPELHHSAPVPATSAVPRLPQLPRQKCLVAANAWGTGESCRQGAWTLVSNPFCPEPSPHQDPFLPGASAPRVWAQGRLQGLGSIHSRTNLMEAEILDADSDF

SMO CELL % INHIBITION @ 2 μM	Structure (SMILES)
99.22%	Cl.O=C(NC12CCCC(c3nc4cc(C(F)(F)F)ccc4[nH]3)(C1)C2)c1ccc2c(c1)OCCO2 [Example 258, N-{5-[5-(trifluoromethyl)-1H-benzimidazol-2-yl]bicyclo[3.1.1]hept-1-yl}-2,3-dihydro-1,4-benzodioxine-6-carboxamide HCL]

Same assay, conditions: 2 μM test compound, SHh 250 ng/ml, 20 hrs, 2 µM

SMO CELL % INHIBITION @ 2 μM	Structure (SMILES)
101%	CN1CCCc2cc(C(=O)N[C@@H]3CCC[C@H](c4nc5ccccc5[nH]4)C3)ccc21 [Example 201, N-[(1R,3S)-3-(1H-benzimidazol-2-yl)cyclohexyl]-1-methyl-1,2,3,4-tetrahydroquino-line-6-carboxamide triflouroacetate]

Same assay, conditions: C3H 10T1/2, 2 uM test compound, SHh 250 ng/ml, 20 hrs, read-out: SMO % inhibition at 2 uM

inhibition at 2 µM	Structure (SMILES)
96%	COc1cc(OC)cc(C(=O)NC2CCCC(c3nc4cc(NC(=O)C(C)C)ccc4[nH]3)C2)c1 (stereo not drawn) [Example 10, N-(3-(5-Isobutyramido-1H-benzo[d]imidazol-2-yl)cyclohexyl)-3,5-dimethoxybenzamide]
58%	CCn1c(C2CCCC(NC(=O)c3ccc4c(c3)OCCO4)C2)nc2ccccc21 (stereo not drawn) [Example 6, N-(3-(1-Ethyl-1H-benzo[d]imidazol-2-yl)cyclohexyl)-2,3-dihydrobenzo[b][1,4]dioxine-6-carboxamide]
107%	Cn1c([C@H]2CCC[C@@H](NC(=O)c3ccc4c(c3)OCCO4)C2)nc2ccccc21 [Example 3, N-((1R,3S)-3-(1-methyl-1H-benzo[d]imidazol-2-yl)cyclohexyl)-2,3-dihydrobenzo[b][1,4]dioxine-6-carboxamide]
108%	O=C(Cc1nc2ccc(Cl)cc2[nH]1)NC1CCCC(c2nc3ccccc3[nH]2)C1 (stereo not drawn) [Example 46, N-(3-(1H-Benzo[d]imidazol-2-yl)cyclohexyl)-2-(6-chloro-1H-benzo[d]imidazol-2-yl)acetamide]

Same assay, conditions: C3H 10T1/2, 2 μM test compound, SHh 250 ng/ml, 20 hrs, read-out: SMO CELL % INHIBITION @ 2 μM

Structure (SMILES)	inhibition at 2 µM
Cc1ccc(C(=O)N[C@@H]2CCC[C@H](c3nc4ccccc4[nH]3)C2)c2ccccc12 [Example 183, N-[(1R,3S)-3-(1H-benzimidazol-2-yl)cyclohexyl]-4-methyl-1-naphthamide triflouroacetate]	95%
CN1C[C@H](O)CC1C(=O)NC1CCCC(c2nc3ccccc3[nH]2)C1 (stereo partly drawn) [Example 113, (4R)-N-[3-(1H-benzimidazol-2-yl)cyclohexyl]-4-hydroxy-1-methyl-L-prolinamide triflouroacetate]	93%
Cc1cccc2nc(C3CCCC(NC(=O)c4ccc5c(c4)OCCO5)C3)[nH]c12 (stereo not drawn) [Example 79, N-[3-(7-methyl-1H-benzimidazol-2-yl)cyclohexyl]-2,3-dihydro-1,4-benzodioxine-6-carboxamide HCl]	102%
S=C(N[C@@H]1CCC[C@H](c2nc3ccccc3[nH]2)C1)c1ccc2c(c1)OCCO2 [Example 75, N-((1R,3S)-3-(1H-benzo[d]imidazol-2-yl)cyclohexyl)-2,3-dihydrobenzo[b] [1,4]dioxine-6-carbothioamide HCl]	104%
CN1C(=O)COc2ccc(C(=O)N[C@@H]3CCC[C@H](c4nc5cc(Cl)ccc5[nH]4)C3)cc21 [Example 301, N-[(1R,3S)-3-(5-chloro-1H-benzimidazol-2-yl)cyclohexyl]-4-methyl-3-oxo-3,4-dihydro-2H-1,4-benzoxazine-6-carboxamide (+)-tartrate]	108%
CCn1nc(C(C)C)cc1C(=O)NC1CCCC(c2nc3ccccc3[nH]2)C1 (stereo not drawn) [Example 146, N-[3-(1H-benzimidazol-2-yl)cyclohexyl]-1-ethyl-3-isopropyl-1H-pyrazole-5-carboxamide triflouroacetate]	61%
COCCNc1ccc(C(=O)N[C@@H]2CCC[C@H](c3nc4cc(C(F)(F)F)ccc4[nH]3)C2)cn1 [Example 292, 6-[(2-methoxyethyl)amino]-N-{(1R,3S)-3-[5-(trifluoromethyl)-1H-benzimidazol-2-yl]cyclohexyl} nicotinamide HCl]	104%
O=C(NC12CCCC(c3nc4cc(C(F)(F)F)ccc4[nH]3)(C1)C2)c1cc2c(cn1)OCCO2 [Example 263, N-{5-[5-(trifluoromethyl)-1H-benzimidazol-2-yl]bicyclo[3.1.1]hept-1-yl}-2,3-dihydro[1,4]di-oxino[2,3-c]pyridine-7-carboxamide]	91.4%
CC(=O)c1c(C)[nH]c(C(=O)NC2CCCC(c3nc4ccccc4[nH]3)C2)c1C (stereo not drawn) [Example 99, 4-acetyl-N-[3-(1H-benzimidazol-2-yl)cyclohexyl]-3,5-dimethyl-1H-pyrrole-2-carboxamide triflouroacetate]	107%
Cn1c(C23CCCC(NC(=O)c4ccc5c(c4)OC(F)(F)O5)(C2)C3)nc2ccccc21 [Example 250, 2,2-difluoro-N-(5-(1-methyl-1H-benzo[d]imidaz-ol-2-yl)bicyclo[3.1.1]heptan-1-yl)benzo[d][1,3] dioxole-5-carboxamide]	94%
Cc1cccc(=O)n1CC(=O)N[C@@H]1CCC[C@H](c2nc3cc(C(F)(F)F)ccc3[nH]2)C1 [Example 282, 2-(6-methyl-2-oxopyridin-1(2H)-yl)-N-{(1R,3S)-3-[5-(trifluoromethyl)-1H-benzimidazol-2-yl]cyclohexyl} acetamide HCl]	85.2%
O=C(NC1CCCC(c2nc3ccc(C(F)(F)F)cc3[nH]2)C1)c1ccc2c(c1)OCCO2 (stereo not drawn) [Example 84, N-{3-[6-(trifluoromethyl)-1H-benzimidazol-2-yl]cyclohexyl}-2,3-dihydro-1,4-benzodioxine-6-carboxamide-HCl]	101%

The remaining lines, values ahead:

inhibition at 2 µM	Structure (SMILES)
54%	O=C(NC1CCCC(c2nc3ccccc3[nH]2)C1)c1ccc2snnc2c1 (stereo not drawn) [Example 161, N-[3-(1H-benzimidazol-2-yl)cyclohexyl]-1,2,3-benzothiadiazole-5-carboxamide triflouroacetate]
94%	O=C(N[C@@H]1CCC[C@H](c2nc3ccccc3[nH]2)C1)c1ccc2ccccc2c1 [Example 187, N-[(1R,3S)-3-(1H-benzimidazol-2-yl)cyclohexyl]-2-naphthamide triflouroacetate]
107%	Cc1ccc2[nH]c(C(=O)N[C@@H]3CCC[C@H](c4nc5ccccc5[nH]4)C3)c(C)c2c1 [Example 191, N-[(1R,3S)-3-(1H-benzimidazol-2-yl)cyclohexyl]-3,5-dimethyl-1H-indole-2-carboxamide triflouroacetate]
62.5%	O=C1COc2ccc(C(=O)N[C@@H]3CCCC(c4nc5ccccc5[nH]4)C3)cc2N1 (stereo partly drawn) [Example 294, N-[(1R)-3-(1H-benzimidazol-2-yl)cyclohexyl]-3-oxo-3,4-dihydro-2H-1,4-benzoxazine-6-carboxamide (+)-tartrate]
104%	O=C(N[C@@H]1CCC[C@H](c2nc3ccccc3[nH]2)C1)c1cc2cc(Cl)ccc2o1 [Example 181, N-[(1R,3S)-3-(1H-benzimidazol-2-yl)cyclohexyl]-5-chloro-1-benzofuran-2-carboxamide triflouroacetate]
115%	O=C(Nc1cc(Cl)cc(Cl)c1)N[C@@H]1CCC[C@H](c2nc3ccccc3[nH]2)C1 [Example 227, 1-[(1R,3S)-3-(1H-benzimidazol-2-yl)cyclohexyl]-3-(3,5-dichlorophenyl) urea]
98%	O=C1CCc2cc(C(=O)N[C@H]3CCC[C@H](c4nc5ccccc5[nH]4)C3)ccc2N1 [Example 247, N-(3-(1H-benzo[d]imidaz-ol-2-yl)cyclohexyl)-2-oxo-1,2,3,4-tetrahydroquino-line-6-carboxamide HCl]
87%	O=C(NC1CCCC(c2nc3ccccc3[nH]2)C1)c1ccc2[nH]cnc2c1 (stereo not drawn) [Example 60, N-[3-(1H-benzimidazol-2-yl)cyclohexyl]-1H-benzimidazole-5-carboxamide HCl]
100%	O=C(NC1CCCC(c2nc3ccccc3[nH]2)C1)c1cc(-c2ccncc2)n[nH]1 (stereo not drawn) [Example 135, N-[3-(1H-benzimidazol-2-yl)cyclohexyl]-3-pyridin-4-yl-1H-pyrazole-5-carboxamide triflouroacetate]
109%	Cc1[nH]c2ccc(C(=O)N[C@@H]3CCC[C@H](c4nc5ccccc5[nH]4)C3)cc2c1C [Example 192, N-[(1R,3S)-3-(1H-benzimidazol-2-yl)cyclohexyl]-2,3-dimethyl-1H-indole-5-carboxamide triflouroacetate]
85%	O=C(N[C@@H]1CCC[C@H](c2nc3ccccc3[nH]2)C1)c1ccc2c(c1)CCO2 [Example 198, N-[(1R,3S)-3-(1H-benzimidazol-2-yl)cyclohexyl]-2,3-dihydro-1-benzofuran-5-carboxamide triflouroacetate]
109%	O=C(N[C@@H]1CCC[C@H](c2nc3ccccc3[nH]2)C1)c1ccc2cc[nH]c2c1 [Example 203, N-[(1R,3S)-3-(1H-benzimidazol-2-yl)cyclohexyl]-1H-indole-6-carboxamide triflouroacetate]
100%	O=C(N[C@@H]1CCC[C@H](c2nc3ccccc3[nH]2)C1)c1cc2c(cn1)OCCO2 [Example 253, N-((1R,3S)-3-(1H-benzo[d]imidaz-ol-2-yl)cyclohexyl)-2,3-dihydro-[1,4]dioxino[2,3-c]pyridine-7-carboxamide]
86%	O=C(N[C@@H]1CCC[C@H](c2nc3ccccc3[nH]2)C1)c1ccc2scnc2c1 [Example 216, N-[(1R,3S)-3-(1H-benzimidazol-2-yl)cyclohexyl]-1,3-benzothiazole-5-carboxamide triflouroacetate]
51%	O=C(NC1CCCC(c2nc3ccccc3[nH]2)C1)c1ccco1 (stereo not drawn) [Example 56, N-[3-(1H-benzimidazol-2-yl)cyclohexyl]-2-furamide HCl]
